Data reported in patent US9981972B2, “N-hydroxy bicyclic hydantoin carbamates as tools for identification of serine hydrolase targets” (ABIDE THERAPEUTICS, INC., priority 2014, dated 2018).
≈ marks a conversion by molar mass, not a printed value. Entries after “also recorded” stand apart in the source; their conditions may differ.

Assays:
[1] = test system: FP-sensitive SHs in the mouse brain membrane proteome; assay: Gel-based competitive ABPP in vitro, mouse brain membrane proteome, anti-targets; assay type: biochemical
How it was run: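 Mouse brain membrane proteome (1 mg/mL in DPBS) was treated with compound (0.1-100 μM) for 30 min at 37 °C, then labeled with FP-Rh (2 μM final, 30 min, 25 °C). Bands were resolved by SDS-PAGE and scanned in-gel, with inhibition taken from band optical density versus DMSO. Targets counted as active or anti-targets at ≥50% inhibition.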

[2] = Solubility in media (DMEM+10% FBS); assay type: physicochemical; details: plasma or biological fluid, kinetic from dmso stock, complete media (DMEM+10% FBS), 22° C., read-out: solubility in DMEM containing 10% serum
Description: Solubility in Media: The solubility of compounds were tested in triplicate in complete media (DMEM+10% FBS). Per well, 198 μL PBS is added to a Millipore Solvinert Hydrophilic PTFE 96 well filter plate: pore size: 0.45 μm (MSRLN0450). Test compounds were introduced from 10 mM DMSO stock solutions (2 μL). The final concentration of DMSO was 1 percent. Samples were allowed to incubate at 22° C. for 18 hours. In the morning the plate was centrifuged where the soluble portion passed through the filter and was collected in a capture plate. The samples were analyzed by HPLC (Agilent 1100 with diode-array detector). Peak area was compared to a standard of known concentration.

| Structure (SMILES) | concentration-dependent profiling, ABHD3 and ABHD4 ([1]; mouse brain membrane SHs, FIG. 7B) | Anti-target(s) 1 μM ([1]; SHs with at least 50% inhibition at 1 μM compound) | Anti-target(s) 10 μM ([1]; SHs with at least 50% inhibition at 10 μM compound) | Anti-target(s) 100 μM ([1]; SHs with at least 50% inhibition at 100 μM compound) | solubility at 18 h [2] |
| --- | --- | --- | --- | --- | --- |
| O=C(ON1C(=O)C2CN(Cc3ccc(Oc4ccccc4)cc3)CCN2C1=O)N1CCC(c2ccccc2)CC1 (centres unmarked) [Compound 38, 1,3-dioxo-7-(4-phenoxybenzyl)hexahydroimidazo[1,5-a]pyrazin-2(3H)-yl 4-phenylpiperidine-1-carboxylate] | promising lead inhibitor for ABHD3 and ABHD4 |  |  |  |  |
| O=C(ON1C(=O)C2CN(C(=O)N3CCOCC3)CCN2C1=O)N1CCC(CCc2ccc(Cl)cc2)CC1 (centres unmarked) [Compound 1, 7-(morpholine-4-carbonyl)-1,3-dioxohexahydroimidazo[1,5-a]pyrazin-2(3H)-yl 4-(4-chloro-phenethyl)piperidine-1-carboxylate] |  | ABHD6 | FAAH,; also recorded: ABHD6 | FAAH,; also recorded: ABHD12,; also recorded: MAGL,; also recorded: ABHD6 | 46 µM (≈ 24.6 µg/mL) |
